Laboratory results: patent publication US20040005537A1, “Method of identifying toxic agents using differential gene expression” (priority 2000, published 2004)

System: rat heart tissue
Assay: GENECALLING differential gene expression analysis after dosing of serotonin modulating agents
Format: in vivo, Sprague Dawley rats
Procedure, shortened: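 Rats dosed with serotonin modulating agents, controls given sterile water or canola oil; tissue taken 24 h after the last dose. Total RNA converted to cDNA and profiled by GENECALLING differential expression analysis; fragments changed more than ±1.5-fold were selected.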

## CC(C)CC(N(C)C)C1(c2ccc(Cl)cc2)CCC1 (stereo not shown) [sibutramine]
CARDIOTOX 70
  Effects on Transcription Level: Novel gene fragment, 467 bp, 94% SI to mouse gelsolin [J04953]: −1.7 fold
CARDIOTOX 71
  Effects on Transcription Level: Novel gene fragment, 535 bp, 90% SI to mouse slow/cardiac troponin C [M29793]: −1.9 fold
CARDIOTOX 72
  Effects on Transcription Level: Novel gene fragment, 445 bp, 85% SI to human skeletal muscle alpha 2 actinin [M86406]: −2.2 fold
CARDIOTOX 73
  Effects on Transcription Level: Novel gene fragment, 246 bp, 89% SI to mouse ponsin-1 [AF078667]: −2.8 fold
CARDIOTOX 74
  Effects on Transcription Level: Novel gene fragment, 126 bp, 77% SI to human DNA sequence from cosmid V311G7, between markers DXS366 and DXS87 on chromosome X [Z69304]: +2.2 fold
CARDIOTOX 75
  Effects on Transcription Level: Novel gene fragment, 370 bp: −1.9 fold
CARDIOTOX 76
  Effects on Transcription Level: Novel gene fragment, 337 bp, 78% SI to novel human protein AHNAK [M80899]: −3.5 fold
CARDIOTOX 77
  Effects on Transcription Level: Novel gene fragment, 100 bp, 93% SI to human KIAA0750 protein [ABO18293]: −8.4 fold
CARDIOTOX 78
  Effects on Transcription Level: Novel gene fragment, 44 bp: −2.9 fold
CARDIOTOX 79
  Effects on Transcription Level: Novel gene fragment, 698 bp, 93% SI to mouse plenty-of-prolines-101 [AF062655]: −2.3 fold
CARDIOTOX 80
  Effects on Transcription Level: Novel gene fragment, 660 bp, 84% SI to mouse membrane protein TMS-2 [AF181685]: −1.9 fold
CARDIOTOX 81
  Effects on Transcription Level: Novel gene fragment, 115 bp: −13.1 fold
CARDIOTOX 82
  Effects on Transcription Level: Novel gene fragment, 294 bp, 95% SI to mouse Ndr1 related protein Ndr2 [AB033921]: −3.3 fold
CARDIOTOX 83
  Effects on Transcription Level: Novel gene fragment, 198 bp: +3.1 fold
CARDIOTOX 84
  Effects on Transcription Level: Novel gene fragment, 730 bp, 86% SI to mouse E800 [Y10968]: −2.1 fold
CARDIOTOX 85
  Effects on Transcription Level: Novel gene fragment, 294 bp, 98% SI to cysteine conjugate beta-lyase [S61960]: −2.1 fold
CARDIOTOX 86, GenBank A1243266
  Effects on Transcription Level: Aconitase: −2.9 fold
CARDIOTOX 87, GenBank M17422
  Effects on Transcription Level: Ribosomal protein L7: +3.7 fold
CARDIOTOX 88, GenBank X51706
  Effects on Transcription Level: Ribosomal protein L9: +8.0 fold
CARDIOTOX 89, GenBank X53504
  Effects on Transcription Level: Ribosomal protein L12: −1.5 fold
CARDIOTOX 90, GenBank V01270
  Effects on Transcription Level: 18S, 5.8S, and 28S ribosomal RNA's: +6 fold
CARDIOTOX 91, GenBank U10357
  Effects on Transcription Level: Pyruvate dehydrogenase kinase 2 (PDK2): −9.5 fold
CARDIOTOX 92, GenBank J03179
  Effects on Transcription Level: D-Binding Protein (DBP): −1.7 fold
CARDIOTOX 93, GenBank L03294
  Effects on Transcription Level: Lipoprotein lipase: −2.5 fold
CARDIOTOX 94, GenBank X02610
  Effects on Transcription Level: Non-neuronal enolase: +3.1 fold
CARDIOTOX 95, GenBank L10669
  Effects on Transcription Level: Glycogen phosphorylase (muscle isozyme): −2.0 fold
CARDIOTOX 96, GenBank X14209
  Effects on Transcription Level: Cytochrome c oxidase subunit IV: +8.0 fold
CARDIOTOX 97, GenBank M17083
  Effects on Transcription Level: Alpha-globin: +7.0 fold
CARDIOTOX 98, GenBank X06701
  Effects on Transcription Level: Beta-globin: +5.0 fold
CARDIOTOX 99, GenBank AF197916
  Effects on Transcription Level: Myoglobin: +7.0 fold
CARDIOTOX 100, GenBank L38717
  Effects on Transcription Level: Titin: +1.5 fold
CARDIOTOX 101, GenBank V01218
  Effects on Transcription Level: Skeletal muscle actin: −3.8 fold
CARDIOTOX 102, GenBank M11851
  Effects on Transcription Level: Myosin light chain 2 (MLC2): +1.9 fold
CARDIOTOX 103, GenBank X15938
  Effects on Transcription Level: Alpha cardiac myosin heavy chain: −3.2 fold
CARDIOTOX 104, GenBank U77354
  Effects on Transcription Level: Troponin I: +1.6 fold
CARDIOTOX 105, GenBank AF001334
  Effects on Transcription Level: Cardiac calsequestrin: −2.5 fold
CARDIOTOX 106, GenBank M16975
  Effects on Transcription Level: Sulfated glycoprotein 2: −1.5 fold
CARDIOTOX 107, GenBank AB000507
  Effects on Transcription Level: Aquaporin 7: +1.6 fold
CARDIOTOX 108, GenBank X97831
  Effects on Transcription Level: Carnitine/acylcarnitine carrier protein: −1.9 fold
CARDIOTOX 109, GenBank U40628
  Effects on Transcription Level: Glu-Pro Dipeptide Repeat: −5.5 fold
CARDIOTOX 110, GenBank X54737
  Effects on Transcription Level: Cystatin beta: +3.1 fold
CARDIOTOX 111
  Effects on Transcription Level: Novel gene fragment, 593 bp, 90% SI to human calcineurin B-like protein [Z08983]: +2.1 fold
CARDIOTOX 112
  Effects on Transcription Level: Novel gene fragment, 179 bp, 88% SI to human titin [X90568]: −2.0 fold
CARDIOTOX 113
  Effects on Transcription Level: Novel gene fragment, 700 bp, 91% SI to mouse periplakin (PPL) [AF116523]: +2.2 fold
CARDIOTOX 114, GenBank J05029
  Effects on Transcription Level: Long chain acyl-CoA dehydrogenase (LCAD): +1.8 fold
CARDIOTOX 115, GenBank M19936
  Effects on Transcription Level: Sulfated glycoprotein 1 (SGP-1): −2.3 fold
CARDIOTOX 116, GenBank M11670
  Effects on Transcription Level: Catalase: +1.8 fold
CARDIOTOX 117, GenBank AF084186
  Effects on Transcription Level: Alpha-fodrin (A2A) (Nonerythroid spectrin alpha subunit): +5.0 fold
CARDIOTOX 118, GenBank M27902
  Effects on Transcription Level: Cardiac specific sodium channel alpha-subunit: −2.9 fold
CARDIOTOX 119, GenBank U40628
  Effects on Transcription Level: Glu-Pro Dipeptide Repeat: +6.0 fold
CARDIOTOX 120
  Effects on Transcription Level: Novel gene fragment, 200 bp, 64% SI to human KIAA0733 protein [AB018316]: −1.5 fold
CARDIOTOX 121, GenBank L42855
  Effects on Transcription Level: RNA polymerase II transcription factor SIII (p18 subunit): +2.0 fold
CARDIOTOX 122, GenBank L01702
  Effects on Transcription Level: Protein-tyrosine phosphalase (LRP): +1.5 fold
CARDIOTOX 123, GenBank U25264
  Effects on Transcription Level: Skeletal muscle selenoprotein W (SelW): −1.5 fold
CARDIOTOX 124, GenBank X15635
  Effects on Transcription Level: Sarcoplasmic reticulum 2+-Ca-ATPase: −2.0 fold
CARDIOTOX 125, GenBank X53377
  Effects on Transcription Level: Ribosomal protein S7: +1.8 fold
CARDIOTOX 126, GenBank X05300
  Effects on Transcription Level: Ribophorin I: +1.6 fold
CARDIOTOX 127, GenBank X15939
  Effects on Transcription Level: Beta cardiac myosin heavy chain: −1.7 fold
CARDIOTOX 128, GenBank L12380
  Effects on Transcription Level: ADP-ribosylation factor 1: −2.0 fold
CARDIOTOX 129, GenBank U04942
  Effects on Transcription Level: Laminin receptor: +4.6 fold
CARDIOTOX 130
  Effects on Transcription Level: Novel gene fragment, 206 bp, 89% SI to human seryl-tRNA synthetase [X91257]: +1.4 fold
CARDIOTOX 131, GenBank X86086
  Effects on Transcription Level: Annexin VI: +1.4 fold
CARDIOTOX 132
  Effects on Transcription Level: Novel gene fragment, 325 bp, 90% SI to mouse N-RAP [U76618]: −1.1 fold
LD10 dose for three days
  Effects on Transcription Level: Novel gene fragment, 61 bp (CARDIOTOX 134): +1.0 fold
  Effects on Transcription Level: Novel gene fragment, 337 bp (CARDIOTOX 133): −1.1 fold
  Effects on Transcription Level: Novel gene fragment, 378 bp, 88% SI to human coatomer protein (COPA) [U24105] (CARDIOTOX 138): −2.3 fold
LD10 dose for three days, GenBank D16479
  Effects on Transcription Level: Long chain 3-ketoacyl-CoA thiolase (CARDIOTOX 136): −2.0 fold
LD10 dose for three days, GenBank D87671
  Effects on Transcription Level: TATA-binding protein interacting protein 120 (TIP120) (CARDIOTOX 135): +1.3 fold
LD10 dose for three days, GenBank D88250
  Effects on Transcription Level: Serine protease (CARDIOTOX 139): +1.3 fold
LD10 dose for three days, GenBank M34043
  Effects on Transcription Level: Thymosin beta-4 (CARDIOTOX 137): +1.5 fold
